Results reported in ChEMBL document CHEMBL3044921, “Synthesis, characterization, and SAR studies of new (1H-indol-3-yl)alkyl-3-(1H-indol-3-yl)propanamide derivatives as possible antimicrobial and antitubercular agents” (2013).
Converted amounts (≈) assume the structure as drawn.

System: Mycobacterium tuberculosis
Experiment: Antitubercular activity against multidrug-resistant Mycobacterium tuberculosis assessed as growth inhibition at 0.3125 to 5 ug/mL after 7 days by resazurin reduction test
Type: functional
Settings: 168 h

Row | Structure (SMILES) | MIC
1 | Cn1cc(CNC(=O)CCc2c[nH]c3ccc(Cl)cc23)c2cc(Cl)ccc21 | > 50 µg/mL
2 | Cn1cc(CCC(=O)NCCCc2c[nH]c3ccc(Cl)cc23)c2cc(Cl)ccc21 | 2.5 µg/mL (≈ 5.84 µM)
3 | Cn1cc(CCCNC(=O)CCc2cn(C)c3ccc(Cl)cc23)c2cc(Cl)ccc21 | 25 µg/mL (≈ 56.5 µM)
4 | Cn1cc(CCC(=O)NCc2cn(C)c3ccc(Cl)cc23)c2cc(Cl)ccc21 | > 50 µg/mL
5 | Cn1cc(CCC(=O)NCc2c[nH]c3ccc(Cl)cc23)c2cc(Cl)ccc21 | 6.25 µg/mL (≈ 15.6 µM)
6 | Cc1c(CNC(=O)CCc2cn(C)c3ccc(Cl)cc23)c2cc(OC(F)(F)F)ccc2n1C | > 50 µg/mL
7 | O=C(CCc1c[nH]c2ccc(Cl)cc12)NCc1c[nH]c2ccc(OC(F)(F)F)cc12 | > 50 µg/mL
8 | Cn1cc(CCCNC(=O)CCc2c[nH]c3ccc(Cl)cc23)c2cc(OC(F)(F)F)ccc21 | 12.5 µg/mL (≈ 26.2 µM)
9 | Cc1c(CCCNC(=O)CCc2cn(C)c3ccc(Cl)cc23)c2cc(OC(F)(F)F)ccc2n1C | 1.25 µg/mL (≈ 2.47 µM)
10 | Cc1[nH]c2ccc(OC(F)(F)F)cc2c1CNC(=O)CCc1c[nH]c2ccc(Cl)cc12 | 6.25 µg/mL (≈ 13.9 µM)
11 | Cc1[nH]c2ccc(OC(F)(F)F)cc2c1CCCNC(=O)CCc1c[nH]c2ccc(Cl)cc12 | > 50 µg/mL
12 | Cn1cc(CCC(=O)NCc2c[nH]c3ccc(OC(F)(F)F)cc23)c2cc(Cl)ccc21 | 6.25 µg/mL (≈ 13.9 µM)
13 | Cc1[nH]c2ccc(OC(F)(F)F)cc2c1CNC(=O)CCc1cn(C)c2ccc(Cl)cc12 | > 50 µg/mL
14 | NNC(=O)c1ccncc1 [ISONIAZID] | 12.5 µg/mL (≈ 91.1 µM)
15 | O=C(CCc1c[nH]c2ccc(Cl)cc12)NCc1c[nH]c2ccc(Cl)cc12 | 6.25 µg/mL (≈ 16.2 µM)
16 | Cc1c(CNC(=O)CCc2c[nH]c3ccc(Cl)cc23)c2cc(OC(F)(F)F)ccc2n1C | > 50 µg/mL
17 | Cn1cc(CCC(=O)NCCCc2c[nH]c3ccc(OC(F)(F)F)cc23)c2cc(Cl)ccc21 | 6.25 µg/mL (≈ 13.1 µM)
18 | CO[C@H]1/C=C/O[C@@]2(C)Oc3c(C)c(O)c4c(O)c(c(/C=N/N5CCN(C)CC5)c(O)c4c3C2=O)NC(=O)/C(C)=C\C=C\[C@H](C)[C@H](O)[C@@H](C)[C@@H](O)[C@@H](C)[C@H](OC(C)=O)[C@@H]1C [RIFAMPIN] | 25 µg/mL (≈ 30.4 µM)
19 | Cc1c(CCCNC(=O)CCc2c[nH]c3ccc(Cl)cc23)c2cc(OC(F)(F)F)ccc2n1C | > 50 µg/mL
